According to paper PMC5527824 (Frontiers in bioscience (Scholar edition), 2015):
Where “and” joins values, the source holds several entries; their conditions need not be identical. Equal values may be shown once. Read-outs that look alike come from different tables or passages of the source.

Tests used:
PC12 cells = conditions: of ~30 flavonoids tested; cited from earlier work
nerve cell = conditions: of ~30 flavonoids tested; cited from earlier work
[1] = rat, in vivo, po; cited from earlier work
[2] = cited from earlier work
cytochrome P450 2C9 = cytochrome P450 2C9 (Homo sapiens, UniProt P11712); assay: cytochrome P450 2C9 inhibition; assay type: in vitro ADME; conditions: at concentrations up to 10 μM; unpublished results
[3] = test system: aluminum chloride toxicity in mice; conditions: oral 15 mg/kg bw; cited from earlier work
[4] = test system: rodent model of depression; conditions: oral administration; cited from earlier work
COX2 (Human recombinant) = COX2 (Human recombinant) (Homo sapiens, UniProt P35354); assay: COX2 inhibition; assay type: biochemical
15-LOX = conditions: rabbit reticulocytes; cited from earlier work
[5] = test system: APPswe/PS1dE9 double transgenic AD mice; conditions: cited from earlier work
Akita mice [6] = assay: Ins2^Akita mouse model of type 1 diabetes; assay type: in vivo; conditions: 0.05% in diet for 18 weeks
[7] = test system: rodent model of depression; conditions: oral administration; cited from earlier work; remark: listed apart in the source
proteasome = conditions: cited from earlier work
HT22 cells = conditions: cited from earlier work
[8] = short-term toxicity study in mice; assay type: in vivo; conditions: oral 2000 mg/kg bw, examined for 48 hr, outside laboratory
[9] = test system: scopolamine-induced memory impairment in mice; conditions: cited from earlier work
[10] = rats, intravenous and oral administration; cited from earlier work
[11] = mouse, intravenous 223 mg/kg bw; cited from earlier work
[12] = test system: APPswe/PS1dE9 double transgenic AD mice; conditions: AD mice 12 months of age, 0.05% in food; cited from earlier work
Akita mice [13] = conditions: cited from earlier work
COX1 (Human platelets) = COX1 (Human platelets) (Homo sapiens, UniProt P23219); assay: COX1 inhibition; assay type: biochemical
12-LOX = conditions: fish gill; cited from earlier work
[14] = test system: mouse hippocampal HT22 cells; conditions: cited from earlier work
5-LOX = conditions: stimulated peritoneal leukocytes; cited from earlier work
[15] = test system: NF-κB coactivator CBP/p300; conditions: human monocytes; cited from earlier work
[16] = test system: BV-2 microglial cell line; conditions: BV-2 cells; cited from earlier work
Nrf2 = conditions: basal half-life ~15 min; cited from earlier work
[17] = target: 5-LOX from human peripheral blood mononuclear leukocytes (PBML) (Homo sapiens, UniProt P09917); assay: 5-LOX inhibition; assay type: biochemical; conditions: Fisetin IC50, 5-LOX
[18] = test system: mouse N9 microglial cells; conditions: cited from earlier work
[19] = cited from earlier work; remark: listed apart in the source
[20] = test system: human lung adenocarcinoma cell line H1299; conditions: H1299 cells; cited from earlier work
[21] = pharmacokinetics in mice, oral; assay type: in vivo, mouse; conditions: oral 50 mg/kg bw, unpublished results
PC12/Htt^Q103 cells = conditions: 10 μM, 24 hr after induction of Httex1-103QP; cited from earlier work
[22] = test system: APPswe/PS1dE9 double transgenic AD mice; conditions: 0.05% in food, cited from earlier work
monoamine oxidase A = conditions: stated as possible mechanism; cited from earlier work
tMCAO in mice [23] = conditions: cited from earlier work; for intracellular TNF-α production in macrophages / TNF-α–producing microglia: brain
cytochrome P450 2D6 = cytochrome P450 2D6 (Homo sapiens, UniProt P10635); assay: cytochrome P450 2D6 inhibition; assay type: in vitro ADME; conditions: at concentrations up to 10 μM; unpublished results
RAW264.7 macrophages = conditions: RAW264.7, via increased MKP-1 levels; cited from earlier work
[24] = test tube assays; cited from earlier work
[25] = test system: mouse HT22 hippocampal nerve cell line; conditions: read-out: EC50, protection from IAA-induced death; HT22 cells; cited from earlier work
cytochrome P450 3A4 = cytochrome P450 3A4 (Homo sapiens, UniProt P08684); assay: cytochrome P450 3A4 inhibition; assay type: in vitro ADME; conditions: at concentrations up to 10 μM; unpublished results
Aβ = conditions: cell-free assay system; cited from earlier work
hERG = hERG (Homo sapiens, UniProt Q12809); assay: hERG activity; conditions: at concentrations up to 10 μM, the highest concentration tested; unpublished results
R6/2 mouse = conditions: R6/2 mice, cited from earlier work
ATF4 = conditions: basal half-life ~10 min; cited from earlier work
[26] = test system: APPswe/PS1dE9 double transgenic AD mice; conditions: AD mice 12 months of age, 0.05% in food; cited from earlier work; remark: listed apart in the source
[27] = cited from earlier work; remark: listed apart in the source
[28] = target: 15-LOX from rabbit reticulocytes (Oryctolagus cuniculus, UniProt P12530); assay: 15-LOX inhibition; conditions: Fisetin IC50, 15-LOX
[29] = 0.05% in diet for 9 months (~25 mg/kg bw), vs control; cited from earlier work
liver microsomes = conditions: ferrous sulfate/ascorbate; cited from earlier work
tMCAO in mice [30] = conditions: cited from earlier work

15-LOX from rabbit reticulocytes, sequence (P12530 whole entry): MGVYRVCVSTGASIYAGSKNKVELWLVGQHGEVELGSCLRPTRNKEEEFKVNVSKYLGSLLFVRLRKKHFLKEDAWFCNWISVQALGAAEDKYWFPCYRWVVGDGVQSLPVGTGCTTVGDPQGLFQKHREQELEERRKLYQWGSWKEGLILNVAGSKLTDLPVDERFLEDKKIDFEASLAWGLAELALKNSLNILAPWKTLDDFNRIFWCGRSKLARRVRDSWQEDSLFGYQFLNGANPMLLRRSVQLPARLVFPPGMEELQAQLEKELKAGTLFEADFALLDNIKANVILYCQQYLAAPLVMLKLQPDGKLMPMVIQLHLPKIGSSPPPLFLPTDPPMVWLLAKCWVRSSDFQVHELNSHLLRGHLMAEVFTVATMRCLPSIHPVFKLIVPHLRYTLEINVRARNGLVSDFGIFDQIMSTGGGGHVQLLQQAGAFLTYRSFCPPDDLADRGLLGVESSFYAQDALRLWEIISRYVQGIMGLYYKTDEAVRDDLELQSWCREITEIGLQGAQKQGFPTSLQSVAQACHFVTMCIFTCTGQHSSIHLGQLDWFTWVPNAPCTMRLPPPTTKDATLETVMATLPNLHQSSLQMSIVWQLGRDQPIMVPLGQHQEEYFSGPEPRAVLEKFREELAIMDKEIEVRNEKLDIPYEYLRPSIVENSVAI
5-LOX from human peripheral blood mononuclear leukocytes (PBML), sequence (P09917 whole entry): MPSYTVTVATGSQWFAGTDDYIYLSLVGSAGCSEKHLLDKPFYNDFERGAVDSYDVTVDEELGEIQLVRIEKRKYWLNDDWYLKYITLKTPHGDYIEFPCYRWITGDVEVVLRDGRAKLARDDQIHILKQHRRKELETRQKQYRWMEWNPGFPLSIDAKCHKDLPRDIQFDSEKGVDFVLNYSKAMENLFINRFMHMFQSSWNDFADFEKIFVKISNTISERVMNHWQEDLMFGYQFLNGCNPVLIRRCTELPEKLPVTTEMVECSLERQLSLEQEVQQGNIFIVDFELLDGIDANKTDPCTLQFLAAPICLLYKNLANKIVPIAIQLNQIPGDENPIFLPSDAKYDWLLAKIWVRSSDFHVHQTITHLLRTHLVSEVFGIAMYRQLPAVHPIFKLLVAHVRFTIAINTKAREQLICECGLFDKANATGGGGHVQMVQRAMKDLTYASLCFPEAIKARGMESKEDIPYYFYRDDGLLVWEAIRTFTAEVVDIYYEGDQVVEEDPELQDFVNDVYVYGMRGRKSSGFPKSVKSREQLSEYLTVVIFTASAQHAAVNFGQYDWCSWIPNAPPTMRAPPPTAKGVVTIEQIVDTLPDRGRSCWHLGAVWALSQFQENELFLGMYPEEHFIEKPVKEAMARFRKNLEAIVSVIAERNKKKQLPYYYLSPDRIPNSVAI
cytochrome P450 2D6, sequence (P10635 whole entry): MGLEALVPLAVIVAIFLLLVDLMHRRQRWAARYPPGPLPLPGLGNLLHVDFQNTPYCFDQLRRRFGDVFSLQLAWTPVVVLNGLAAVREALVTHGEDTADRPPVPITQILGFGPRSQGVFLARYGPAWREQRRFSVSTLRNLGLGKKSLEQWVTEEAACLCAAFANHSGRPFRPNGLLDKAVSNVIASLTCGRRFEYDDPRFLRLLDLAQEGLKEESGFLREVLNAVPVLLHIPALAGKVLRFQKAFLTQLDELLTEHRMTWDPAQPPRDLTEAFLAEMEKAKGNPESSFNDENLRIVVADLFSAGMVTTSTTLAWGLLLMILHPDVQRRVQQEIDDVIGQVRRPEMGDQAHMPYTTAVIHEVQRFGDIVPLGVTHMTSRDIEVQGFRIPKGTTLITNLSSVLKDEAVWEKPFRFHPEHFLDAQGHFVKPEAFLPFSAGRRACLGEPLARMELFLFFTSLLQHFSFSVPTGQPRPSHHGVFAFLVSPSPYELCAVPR
hERG, sequence (Q12809 whole entry): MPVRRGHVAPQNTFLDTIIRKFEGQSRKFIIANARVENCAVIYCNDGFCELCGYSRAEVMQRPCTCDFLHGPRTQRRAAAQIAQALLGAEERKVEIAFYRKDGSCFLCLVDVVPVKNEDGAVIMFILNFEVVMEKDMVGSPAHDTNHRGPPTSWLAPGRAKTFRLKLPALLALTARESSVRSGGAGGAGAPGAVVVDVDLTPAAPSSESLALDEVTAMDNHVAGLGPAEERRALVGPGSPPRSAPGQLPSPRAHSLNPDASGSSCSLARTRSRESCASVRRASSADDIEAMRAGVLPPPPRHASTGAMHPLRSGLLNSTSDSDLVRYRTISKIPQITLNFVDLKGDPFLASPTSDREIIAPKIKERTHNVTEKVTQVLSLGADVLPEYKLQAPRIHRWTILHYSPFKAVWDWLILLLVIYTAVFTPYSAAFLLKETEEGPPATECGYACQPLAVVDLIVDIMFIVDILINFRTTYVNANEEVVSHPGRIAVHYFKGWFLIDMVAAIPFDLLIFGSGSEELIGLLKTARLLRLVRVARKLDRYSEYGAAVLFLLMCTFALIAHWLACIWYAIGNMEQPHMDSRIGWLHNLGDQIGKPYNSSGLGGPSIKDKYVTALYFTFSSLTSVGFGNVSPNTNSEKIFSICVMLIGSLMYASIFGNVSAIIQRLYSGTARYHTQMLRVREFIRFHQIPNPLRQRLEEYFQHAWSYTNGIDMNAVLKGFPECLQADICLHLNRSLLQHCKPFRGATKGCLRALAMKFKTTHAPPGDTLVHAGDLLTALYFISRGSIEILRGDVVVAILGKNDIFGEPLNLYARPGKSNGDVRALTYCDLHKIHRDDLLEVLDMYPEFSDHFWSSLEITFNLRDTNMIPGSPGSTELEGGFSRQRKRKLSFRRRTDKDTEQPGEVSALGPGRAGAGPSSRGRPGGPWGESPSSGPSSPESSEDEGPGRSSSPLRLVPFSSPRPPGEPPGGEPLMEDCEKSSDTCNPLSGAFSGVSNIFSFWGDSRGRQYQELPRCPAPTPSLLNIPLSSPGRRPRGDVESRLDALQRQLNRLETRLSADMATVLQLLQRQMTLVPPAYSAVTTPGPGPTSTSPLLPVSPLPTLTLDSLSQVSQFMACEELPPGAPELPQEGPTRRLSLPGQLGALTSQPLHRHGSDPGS
cytochrome P450 2C9, sequence (P11712 whole entry): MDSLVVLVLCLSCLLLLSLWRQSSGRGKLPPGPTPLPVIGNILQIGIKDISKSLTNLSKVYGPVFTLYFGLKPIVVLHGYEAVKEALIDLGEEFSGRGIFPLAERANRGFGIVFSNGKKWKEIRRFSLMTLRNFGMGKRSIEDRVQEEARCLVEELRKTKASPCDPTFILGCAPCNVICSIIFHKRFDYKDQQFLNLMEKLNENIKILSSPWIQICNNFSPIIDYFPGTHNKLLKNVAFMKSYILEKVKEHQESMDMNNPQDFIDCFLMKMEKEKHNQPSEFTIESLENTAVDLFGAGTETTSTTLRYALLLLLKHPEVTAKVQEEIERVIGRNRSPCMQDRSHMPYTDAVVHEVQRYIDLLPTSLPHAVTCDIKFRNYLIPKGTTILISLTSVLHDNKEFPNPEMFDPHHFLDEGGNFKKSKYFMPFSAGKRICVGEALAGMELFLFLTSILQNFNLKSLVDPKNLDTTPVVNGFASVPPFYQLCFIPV
cytochrome P450 3A4, sequence (P08684 whole entry): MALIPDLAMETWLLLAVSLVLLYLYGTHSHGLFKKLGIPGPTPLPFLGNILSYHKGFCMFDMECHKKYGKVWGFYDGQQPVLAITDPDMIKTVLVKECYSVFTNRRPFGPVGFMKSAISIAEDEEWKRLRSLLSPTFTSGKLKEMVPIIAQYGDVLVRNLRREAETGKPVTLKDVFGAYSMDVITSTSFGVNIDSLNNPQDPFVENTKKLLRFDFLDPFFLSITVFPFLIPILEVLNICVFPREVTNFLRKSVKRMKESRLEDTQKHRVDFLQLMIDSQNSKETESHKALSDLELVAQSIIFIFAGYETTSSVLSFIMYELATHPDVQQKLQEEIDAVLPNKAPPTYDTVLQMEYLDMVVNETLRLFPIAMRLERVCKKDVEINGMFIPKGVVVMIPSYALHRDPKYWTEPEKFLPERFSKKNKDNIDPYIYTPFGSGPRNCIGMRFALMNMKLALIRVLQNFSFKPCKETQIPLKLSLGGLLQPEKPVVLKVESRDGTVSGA
COX2 (Human recombinant), sequence (P35354 18-604): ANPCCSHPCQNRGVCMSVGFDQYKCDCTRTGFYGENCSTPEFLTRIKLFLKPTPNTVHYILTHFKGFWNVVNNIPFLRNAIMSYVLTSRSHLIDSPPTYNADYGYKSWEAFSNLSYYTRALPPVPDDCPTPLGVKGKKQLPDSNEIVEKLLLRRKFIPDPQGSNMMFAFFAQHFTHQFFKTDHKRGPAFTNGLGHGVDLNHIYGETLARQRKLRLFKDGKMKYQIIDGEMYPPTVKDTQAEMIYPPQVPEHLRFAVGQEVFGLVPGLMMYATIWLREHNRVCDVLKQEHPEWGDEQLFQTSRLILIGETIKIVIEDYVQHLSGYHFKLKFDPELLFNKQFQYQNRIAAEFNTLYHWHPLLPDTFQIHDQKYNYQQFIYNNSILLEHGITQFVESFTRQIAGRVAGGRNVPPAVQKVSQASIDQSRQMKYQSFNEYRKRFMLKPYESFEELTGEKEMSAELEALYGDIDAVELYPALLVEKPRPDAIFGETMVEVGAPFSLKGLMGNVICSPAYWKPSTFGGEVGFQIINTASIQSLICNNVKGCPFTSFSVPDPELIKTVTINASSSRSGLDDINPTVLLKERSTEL

O=c1c(O)c(-c2ccc(O)c(O)c2)oc2cc(O)cc(O)c12 [quercetin, reference compound]
differentiation of PC12 cells (neurotrophic activity) (PC12 cells): some differentiation-inducing activity
maintenance of GSH levels in the presence of oxidative stress (nerve cell): able to maintain GSH levels

O=c1cc(-c2ccccc2)oc2cc(O)c(O)c(O)c12 [baicalein]
levels of free and conjugated flavonoid [1]: ≤ 1000 nM

COc1cc(-c2oc3cc(O)ccc3c(=O)c2O)ccc1O [geraldol, 3,4′,7-trihydroxy-3′-methoxyflavone]
activity in several biological assays [2]: as active as fisetin

O=c1cc(-c2ccc(O)c(O)c2)oc2cc(O)cc(O)c12 [luteolin]
differentiation of PC12 cells (neurotrophic activity) (PC12 cells): some differentiation-inducing activity

COc1cc(-c2oc3cc(O)cc(O)c3c(=O)c2O)ccc1O [isorhamnetin]
differentiation of PC12 cells (neurotrophic activity) (PC12 cells): some differentiation-inducing activity

O=c1c(O)c(-c2ccc(O)c(O)c2)oc2cc(O)ccc12 [fisetin, 3,3′,4′,7-tetrahydroxyflavone]
inhibition of cytochrome P450 2C9 activity (cytochrome P450 2C9): no inhibitory effects
loss of total GSH from cortex and hippocampus [3]: greatly reduce the loss of total GSH
most effective dose at reducing immobility time [4]: 20 mg/kg bw
IC50 (COX2 (Human recombinant)): > 10000 nM
inhibition of 15-LOX activity (15-LOX): effective inhibitor
production of PGD2, PGJ2 and 15d-PGD2 ([5]; AD mice study): increased production
ERK phosphorylation in the hippocampus ([5]; AD mice treated with fisetin): increases in ERK phosphorylation
AD-increased production of thromboxanes TXB1 and TXB2 ([5]; AD mice, 0.05% in food): partly prevented
astrocyte area and intensity of GFAP staining in hippocampus ([5]; AD mice, 0.05% in food): largely reversed
brain levels of 5-HETE and 12-HETE ([5]; AD mice): significantly reduce
Aβ1–40 level in RIPA soluble fraction of hippocampus ([5]; ELISA, Aβ1–42 not reduced): significantly reduce
Aβ plaque loads in brain sections ([5]; fisetin-fed vs control AD mice): No significant differences
decrease in motor nerve conduction velocity (Akita mice [6]): ameliorated
increase in hind paw thermal latency (Akita mice [6]): prevented
most effective dose at reducing immobility time [7]: 20 mg/kg bw
proteasome activity (proteasome): increase proteasome activity
differentiation of PC12 cells (neurotrophic activity) (PC12 cells): promoting the differentiation of PC12 cells
extracellular Aβ toxicity (HT22 cells): prevents extracellular Aβ toxicity
short-term toxicity [8]: No indications of toxicity
loss of total GSH from the cortex ([9]; scopolamine-treated mice): prevent the loss of total GSH
rescue of memory deficit induced by scopolamine ([9]; single oral dose of 40 mg/kg bw): as effective as donepezil
t1/2 of free fisetin in serum [10]: 2.7 min
t1/2 of free fisetin in serum [11]: 3.12 h
escape latency, hidden platform day 2 [12]: indistinguishable from that of the wild type mice
elevated blood glucose and HbA1c (Akita mice [13]; 0.05% in food (25–40 mg/kg bw daily), 6 to 24 weeks): not affected
open field test, distance traveled and time ambulatory (anxiety-related symptoms) (Akita mice [13]; 0.05% in food): restored to near normal values
weight loss (Akita mice [13]; 0.05% in food): not altered
IC50 (COX1 (Human platelets)): > 10000 nM
inhibition of 12-LOX activity (12-LOX): effective inhibitor
reduction in the ability of fisetin to maintain cellular GSH levels ([14]; siRNA to ATF4, basal and glutamate-induced oxidative stress conditions): ~ 50%
effect of Nrf2 reduction on the ability of fisetin to maintain GSH levels ([14]; siRNA to Nrf2, basal conditions): no effect
reduction in the ability of fisetin to maintain GSH ([14]; siRNA to Nrf2, in the presence of oxidative stress): ~ 30%
inhibition of 5-LOX activity (5-LOX): effective inhibitor
activity of CBP/p300 [15]: suppress
LPS-induced nitric oxide production, TNF-α, PGE2 and iNOS/COX2 expression [16]: blocked
increase of Nrf2 half-life (Nrf2): ~ 2 fold
IC50 [17]: 585 nM and 580 nM
reduction of iNOS expression ([18]; 10 μM, following LPS stimulation (p<0.001)): 91%
IκB, JNK and c-Jun phosphorylation ([18]; LPS-stimulated murine microglia): significantly reduced
LPS-induced nitric oxide and TNF-α production ([18]; N9 cells, vs placebo): significant inhibition
Trolox equivalent antioxidant capacity (TEAC) value [19]: ~ 3
NF-κB-dependent reporter gene expression and protein expression [20]: reduced
half-life of free fisetin [21]: very short half-life
protection of cells (PC12/Htt^Q103 cells): equal or greater amount of protection
swim speeds [22]: no effect
MWM probe test, memory (time in platform quadrant) ([22]; AD mice 9 months of age): clear evidence of memory improvement
inhibition of monoamine oxidase A (monoamine oxidase A): mild inhibition
leukocytes infiltrating the brain (tMCAO in mice [23]; 50 mg/kg bw, day 3, mean ± SD, placebo 179,252 ± 23,389): 93,045 ± 46,963 cells per ischemic hemisphere
numbers of microglia in the ipsilesional hemisphere (tMCAO in mice [23]; 50 mg/kg bw, day 3 after stroke, vs placebo): no significant differences
intracellular TNF-α production in macrophages (tMCAO in mice [23]; day 3, placebo 24.6%): 2.9%
TNF-α–producing microglia (tMCAO in mice [23]; day 3, placebo 30.4%): 17.3%
TNF-α–producing microglia (tMCAO in mice [23]; day 7, placebo 31.9%): 26.8%
intracellular TNF-α production in macrophages (tMCAO in mice [23]; day 7, placebo 33.8%): 13.9%
TNF-α production in macrophages and DCs isolated from spleen (tMCAO in mice [23]; day 3 and day 7 post ischemia, vs placebo): did not show any differences
inhibition of cytochrome P450 2D6 activity (cytochrome P450 2D6): no inhibitory effects
p38 MAPK and JNK activation (RAW264.7 macrophages): suppresses
concentration at which pro-oxidant effects are seen [24]: ≥ 50 µM
EC50 [25]: 3000 nM
maintenance of GSH levels in the presence of oxidative stress (nerve cell): able to maintain GSH levels
Ames test (Ames test): negative
inhibition of cytochrome P450 3A4 activity (cytochrome P450 3A4): no inhibitory effects
Aβ fibril formation (Aβ): inhibit Aβ fibril formation
inhibition of hERG activity (hERG): no inhibition
median life span (R6/2 mouse; 0.05% in food from ~6 weeks of age, control diet 104 days): 139 days
rotorod performance (R6/2 mouse; 0.05% in food, at 9, 11 and 13 weeks (p < 0.01)): improved
increase of median life span (R6/2 mouse; 0.05% in food, vs control diet): ~ 30%
increase of ATF4 half-life (ATF4): ~ 2 fold
time in the open arms (disinhibition) [26]: reversed
chelation of iron [27]: efficient chelation
IC50 [28]: 341 nM and 340 nM
body weights [29]: No significant differences
concentration decreasing lipid peroxidation (liver microsomes): 1.35 µM
infarct size (tMCAO in mice [30]; 25 mg/kg i.p. 20 min before onset of ischemia, placebo 56 μl): 49 µL
infarct size (tMCAO in mice [30]; 50 mg/kg i.p. 20 min before onset of ischemia, placebo 56 μl): 30 µL
infarct size (tMCAO in mice [30]; 50 mg/kg i.p. three hours after onset of ischemia, placebo 42 μl): 27 µL
